Measured values reported in US20200253211A1, “PHOTODYNAMIC INHIBITION OF MICROBIAL PATHOGENS IN PLANTS” (SUNCOR ENERGY INC, priority 2017, published 2020).

System: Sclerotinia homoeocarpa
Assay: Radial growth of dollar spot fungus on amended Potato Dextrose Agar, dark vs light
Assay type: cell-based
[1] = Table 17D, light, rate 31.62 μM
[2] = Table 17D, light, rate 316.2 μM
[3] = Table 16B, light, Chlorin Rate 5 μM
[4] = Table 16B, light, Chlorin Rate 10 μM
[5] = Table 16B, light, Chlorin Rate 31 μM

Question: With `C=Cc1c(C)c2cc3nc(c(CC(=O)[O-])c4[n-]c(cc5nc(cc1[n-]2)C(C)=C5CC)c(C)c4C(=O)[O-])C(CCC(=O)[O-])C3C.[Cu+2].[Na+].[Na+].[Na+]` (stereo not drawn) [Cu Chlorophyllin (CuChln), Cu chlorophyllin, reference compound] as the compound, how does the “% Inhibition” value (Table 17C, dark, rate 31.62 μM) read?
Answer: −3.13%

Question: And the “Mean Radial Growth” value (Table 17C, dark, rate 31.62 μM)?
Answer: 14.30 mm

Question: And the “% Inhibition” value (Table 17C, dark, rate 100 μM)?
Answer: −3.37%

Question: What about the “Mean Radial Growth” value (Table 17C, dark, rate 100 μM) of the same compound?
Answer: 14.33 mm

Question: What about the “% Inhibition” value (Table 17C, dark, rate 316.2 μM) of the same compound?
Answer: −5.29%

Question: And the “Mean Radial Growth” value (Table 17C, dark, rate 316.2 μM)?
Answer: 14.60 mm

Question: What about the “% Inhibition” value (Table 17C, dark, rate 1000 μM) of the same compound?
Answer: −3.85%

Question: And the “Mean Radial Growth” value (Table 17C, dark, rate 1000 μM)?
Answer: 14.40 mm

Question: And the “% Inhibition” value [1]?
Answer: −18.93%

Question: What about the “Mean Radial Growth” value [1] of the same compound?
Answer: 14.03 mm

Question: And the “% Inhibition” value (Table 17D, light, rate 100 μM)?
Answer: −20.34%

Question: And the “Mean Radial Growth” value (Table 17D, light, rate 100 μM)?
Answer: 14.20 mm

Question: And the “% Inhibition” value [2]?
Answer: −26.55%

Question: What about the “Mean Radial Growth” value [2] of the same compound?
Answer: 14.93 mm

Question: What about the “% Inhibition” value (Table 17D, light, rate 1000 μM) of the same compound?
Answer: −28.81%

Question: And the “Mean Radial Growth” value (Table 17D, light, rate 1000 μM)?
Answer: 15.20 mm

Question: `C=Cc1c(C)c2cc3nc(c(CC(=O)O)c4[n-]c(cc5nc(cc1[n-]2)C(C)=C5CC)c(C)c4C(=O)O)C(CCC(=O)O)C3C.[Zn+2]` (stereo not drawn) [ZnCe6] was tested. Which “% Inhibition” value (Table 16A, dark, rate 5 μM) did it give?
Answer: 2.47%

Question: And the “Mean Radial Growth” value (Table 16A, dark, rate 5 μM)?
Answer: 13.2 mm

Question: And the “% Inhibition” value (Table 16A, dark, rate 10 μM)?
Answer: 7.41%

Question: What about the “Mean Radial Growth” value (Table 16A, dark, rate 10 μM) of the same compound?
Answer: 12.5 mm

Question: What about the “% Inhibition” value (Table 16A, dark, rate 31 μM) of the same compound?
Answer: 23.46%

Question: And the “Mean Radial Growth” value (Table 16A, dark, rate 31 μM)?
Answer: 10.3 mm

Question: And the “% Inhibition” value [3]?
Answer: 10.4%

Question: What about the “Mean Radial Growth” value [3] of the same compound?
Answer: 11.5 mm

Question: And the “% Inhibition” value [4]?
Answer: 21.4%

Question: What about the “Mean Radial Growth” value [4] of the same compound?
Answer: 10.1 mm

Question: What about the “% Inhibition” value [5] of the same compound?
Answer: 41.6%

Question: And the “Mean Radial Growth” value [5]?
Answer: 7.5 mm

Question: What does the source list for `C=Cc1c(C)c2cc3nc(c(CC(=O)O)c4[n-]c(cc5nc(cc1[n-]2)C(C)=C5CC)c(C)c4C(=O)O)C(CCC(=O)O)C3C.[Co+2]` (stereo not drawn) [CoCe6, reference compound]?
Answer: % Inhibition (Table 17A, dark, rate 10 μM): 2.05%; Mean Radial Growth (Table 17A, dark, rate 10 μM): 13.3 mm; % Inhibition (Table 17A, dark, rate 31 μM): 4.92%; Mean Radial Growth (Table 17A, dark, rate 31 μM): 12.9 mm; % Inhibition (Table 17B, light, rate 10 μM): 3.0%; Mean Radial Growth (Table 17B, light, rate 10 μM): 12.4 mm; % Inhibition (Table 17B, light, rate 31 μM): 3.9%; Mean Radial Growth (Table 17B, light, rate 31 μM): 12.3 mm

Question: With `C=Cc1c(C)c2cc3nc(c(CC(=O)O)c4[n-]c(cc5nc(cc1[n-]2)C(C)=C5CC)c(C)c4C(=O)O)C(CCC(=O)O)C3C.[Pd+2]` (stereo not drawn) [PdCe6] as the compound, how does the “% Inhibition” value (Table 16A, dark, rate 5 μM) read?
Answer: 18.82%

Question: And the “Mean Radial Growth” value (Table 16A, dark, rate 5 μM)?
Answer: 11.5 mm

Question: What about the “% Inhibition” value (Table 16A, dark, rate 10 μM) of the same compound?
Answer: 36.47%

Question: And the “Mean Radial Growth” value (Table 16A, dark, rate 10 μM)?
Answer: 9.0 mm

Question: And the “% Inhibition” value (Table 16A, dark, rate 31 μM)?
Answer: 42.75%

Question: And the “Mean Radial Growth” value (Table 16A, dark, rate 31 μM)?
Answer: 8.1 mm

Question: What about the “% Inhibition” value [3] of the same compound?
Answer: 49.3%

Question: And the “Mean Radial Growth” value [3]?
Answer: 6.2 mm

Question: And the “% Inhibition” value [4]?
Answer: 76.9%

Question: And the “Mean Radial Growth” value [4]?
Answer: 2.8 mm

Question: And the “% Inhibition” value [5]?
Answer: 100.0%

Question: And the “Mean Radial Growth” value [5]?
Answer: 0 mm
